According to ChEMBL document CHEMBL1134829, “7-Alkyl- and 7-cycloalkyl-5-aryl-pyrrolo[2,3-d]pyrimidines--potent inhibitors of the tyrosine kinase c-Src” (Bioorg Med Chem Lett, 2001):
pIC50: −log10 of the molar value.

Tests used:
[1] = molecular target: T1, Proto-oncogene tyrosine-protein kinase Src (Gallus gallus, UniProt P00523); assay: Inhibition of p60 c-Src tyrosine kinase activity
[2] = molecular target: T1, Proto-oncogene tyrosine-protein kinase Src; assay: Inhibition of p60 c-Src tyrosine kinase mediated phosphorylation of Fak in IC8.1 fibroblasts; assay type: functional
[3] = molecular target: Tyrosine-protein kinase ABL (Homo sapiens, UniProt P00519+P42684)
Description: Inhibition of v-Abl tyrosine kinase activity

[4] = molecular target: Epidermal growth factor receptor (Homo sapiens, UniProt P00533); assay: Inhibition of Epidermal growth factor receptor (EGF-R) tyrosine kinase activity
Chain of Epidermal growth factor receptor (P00533 whole entry): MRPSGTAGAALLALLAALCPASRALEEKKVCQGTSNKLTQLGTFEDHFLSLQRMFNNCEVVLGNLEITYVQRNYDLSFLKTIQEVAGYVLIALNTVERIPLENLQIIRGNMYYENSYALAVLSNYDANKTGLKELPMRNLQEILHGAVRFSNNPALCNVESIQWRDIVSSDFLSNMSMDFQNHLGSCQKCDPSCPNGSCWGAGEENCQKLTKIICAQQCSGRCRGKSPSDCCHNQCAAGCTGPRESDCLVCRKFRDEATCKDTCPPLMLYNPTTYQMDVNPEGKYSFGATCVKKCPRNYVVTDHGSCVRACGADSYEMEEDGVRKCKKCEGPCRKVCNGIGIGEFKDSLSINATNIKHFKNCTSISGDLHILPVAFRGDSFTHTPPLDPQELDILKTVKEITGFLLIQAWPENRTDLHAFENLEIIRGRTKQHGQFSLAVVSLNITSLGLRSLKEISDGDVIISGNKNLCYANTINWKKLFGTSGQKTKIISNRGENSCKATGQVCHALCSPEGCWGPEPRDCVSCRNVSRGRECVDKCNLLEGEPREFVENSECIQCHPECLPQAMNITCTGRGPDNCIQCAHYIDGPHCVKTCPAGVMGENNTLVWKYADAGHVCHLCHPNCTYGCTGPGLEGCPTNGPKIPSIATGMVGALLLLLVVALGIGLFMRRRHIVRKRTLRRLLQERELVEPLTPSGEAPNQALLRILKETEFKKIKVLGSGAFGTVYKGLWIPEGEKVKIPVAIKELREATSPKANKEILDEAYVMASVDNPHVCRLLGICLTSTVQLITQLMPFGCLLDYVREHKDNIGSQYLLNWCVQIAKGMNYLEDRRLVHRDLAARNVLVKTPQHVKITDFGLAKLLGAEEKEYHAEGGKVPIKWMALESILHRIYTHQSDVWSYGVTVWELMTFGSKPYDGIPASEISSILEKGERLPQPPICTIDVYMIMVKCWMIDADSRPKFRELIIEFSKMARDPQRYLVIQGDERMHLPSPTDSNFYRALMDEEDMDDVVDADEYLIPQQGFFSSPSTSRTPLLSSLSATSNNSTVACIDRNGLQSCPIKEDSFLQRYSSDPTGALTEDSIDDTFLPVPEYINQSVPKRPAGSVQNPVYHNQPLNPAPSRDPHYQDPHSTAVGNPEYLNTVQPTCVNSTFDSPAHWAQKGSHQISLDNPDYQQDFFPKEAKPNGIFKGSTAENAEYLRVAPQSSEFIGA

[5] = molecular target: T1, Proto-oncogene tyrosine-protein kinase Src; assay: Inhibition of p60 c-Src tyrosine kinase at 830 ng/mL

SMILES | pIC50 [1] | pIC50 [2] | IC50 [3] [nM] | pIC50 [4] | pIC50 [5]
Nc1ncnc2c1c(-c1ccc(O)cc1)cn2C1CCC1 | 8.00 | 5.82 | 85 | 6.22 | 
Nc1ncnc2c1c(-c1ccccc1)cn2C1CCC1 | 6.96 | 6.00 | 90 | 6.14 | 
Nc1ncnc2c1c(-c1ccccc1)cn2C1CC(O)C1 (stereo unspecified) | 7.70 | 5.40 | 390 | 5.55 | 
Nc1ncnc2c1c(-c1ccccc1)cn2C1CCC(O)C1 (stereo unspecified) | 7.30 | 6.70 | 40 | 6.10 | 
COc1cccc(-c2cn(C3CCCC3)c3ncnc(N)c23)c1 | 8.70 | 6.77 | 170 | 6.34 | 
COc1cccc(-c2cn(C3CC(CNCCO)C3)c3ncnc(N)c23)c1 (stereo unspecified) | 7.70 | 6.52 | 420 | 6.31 | 
COc1ccc(CC(CO)n2cc(-c3cccc(OC)c3)c3c(N)ncnc32)cc1 (stereo unspecified) | 6.00 |  |  | 5.01 | 
COc1ccc(-c2cn(C3CCC3)c3ncnc(N)c23)cc1 | 6.70 | 5.52 |  |  | 
Nc1ncnc2c1c(-c1cccc(O)c1)cn2C1CCCC1 | 9.00 | 6.70 |  | 7.10 | 
COc1ccc(CC(CO)n2cc(-c3cccc(O)c3)c3c(N)ncnc32)cc1 (stereo unspecified) | 7.38 | 6.40 | 340 | 5.47 | 
Nc1ncnc2c1c(-c1ccc(O)cc1)cn2C1CCCC1 | 7.70 | 6.52 | 110 | 6.60 | 
Nc1ncnc2c1c(-c1ccccc1)cn2C(CO)Cc1ccc(O)cc1 (stereo unspecified) | 5.72 |  | 2200 | 4.88 | 
COc1ccc(-c2cn(C3CCCC3)c3ncnc(N)c23)cc1 | 7.10 | 5.92 | 260 | 6.24 | 
COc1ccc(CC(CO)n2cc(-c3ccccc3)c3c(N)ncnc32)cc1 (stereo unspecified) | < 6.00 | < 5.30 | > 10000 | 4.84 | 
Nc1ncnc2c1c(-c1ccccc1)cn2C(CO)Cc1ccccc1 (stereo unspecified) | 6.22 |  | 10500 | 6.36 | 
COc1cccc(-c2cn(C3CC(CO)C3)c3ncnc(N)c23)c1 (stereo unspecified) | 7.52 | 5.70 | 40 |  | 
Nc1ncnc2c1c(-c1ccccc1)cn2C1CCCC1 | 6.85 | 5.74 | 140 | 6.30 | 
COc1cccc(-c2cn(C3CC(C(=O)NCCO)C3)c3ncnc(N)c23)c1 (stereo unspecified) | 7.70 | 5.40 | 230 | 6.48 | 
COc1cccc(-c2cn(C3CCC3)c3ncnc(N)c23)c1 | 7.40 | 6.22 | 50 | 6.35 | 
Nc1ncnc2c1c(-c1cccc(O)c1)cn2C1CCC1 | 8.40 | 7.00 | 5 | 6.52 | 
Nc1ncnc2c1c(-c1ccccc1)cn2C(CO)CCc1ccccc1 (stereo unspecified) | 5.40 |  |  |  | 
Nc1ncnc2c1c(-c1ccccc1)cn2[C@@H](CO)c1ccccc1 | 6.32 | < 5.30 |  |  | 
Nc1ncnc2c1c(-c1ccccc1)cn2[C@H](CO)c1ccccc1 |  |  |  |  | 5.31
